# Laboratory results taken from patent US20260347347A1, “2-AZA-AND 2-OXABICYCLO[2.1.1]HEXANE DERIVATIVES AS FACTOR XIIA ENZYME INHIBITORS” (KALVISTA PHARMACEUTICALS LIMITED, priority 2022, published 2026).
# pIC50: −log10 of the molar value.
# Target: T1, Human Factor XIIa (Homo sapiens, UniProt P00748)
# T1 construct: purchased Enzyme Research Laboratories
# T1 sequence (P00748 373-615 limits assumed): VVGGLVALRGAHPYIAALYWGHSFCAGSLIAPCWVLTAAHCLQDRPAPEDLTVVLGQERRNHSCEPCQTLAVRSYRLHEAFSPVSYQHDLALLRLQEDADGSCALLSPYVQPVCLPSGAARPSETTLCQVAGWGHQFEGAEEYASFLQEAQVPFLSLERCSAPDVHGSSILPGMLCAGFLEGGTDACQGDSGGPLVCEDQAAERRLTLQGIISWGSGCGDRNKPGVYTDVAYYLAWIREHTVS
# T1 sequence (P00748 20-372 partner limits assumed): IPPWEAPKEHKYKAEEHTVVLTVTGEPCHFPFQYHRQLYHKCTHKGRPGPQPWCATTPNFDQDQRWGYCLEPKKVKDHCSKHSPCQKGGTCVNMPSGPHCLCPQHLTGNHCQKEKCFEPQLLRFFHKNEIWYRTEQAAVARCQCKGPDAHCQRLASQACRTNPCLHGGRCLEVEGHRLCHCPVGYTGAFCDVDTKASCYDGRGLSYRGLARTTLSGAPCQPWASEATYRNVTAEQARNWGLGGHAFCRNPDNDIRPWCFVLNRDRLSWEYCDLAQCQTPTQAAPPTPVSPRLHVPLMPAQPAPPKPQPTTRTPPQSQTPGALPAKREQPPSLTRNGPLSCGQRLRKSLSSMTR
# Test: Determination of FXIIa inhibition (in vitro IC50 assay, fluorogenic substrate H-DPro-Phe-Arg-AFC)
# Type: biochemical
# Conditions: human Factor XIIa; fluorogenic substrate H-DPro-Phe-Arg-AFC at Km concentration; 5 min, 25 °C; class symbols; read-out: Human FXIIa IC50
# Protocol: In vitro inhibition of Factor XIIa was determined using an IC50 assay based on standard literature methods (see e.g Baeriswyl et al., ACS Chem. Biol., 2015, 10 (8) 1861; Bouckaert et al., European Journal of Medicinal Chemistry 110 (2016) 181). Human Factor XIIa (Enzyme Research Laboratories) was incubated at 25 °C with the fluorogenic substrate H-DPro-Phe-Arg-AFC (Peptide Protein Science) and various concentrations of the test compound. Protease activity was measured by monitoring the accumulation of liberated fluorescence from the substrate over 5 min at 25 °C. The linear rate of fluorescence increase per minute was expressed as percentage (%) activity. The Km for the cleavage of the substrate by FXIIa was determined by standard transformation of the Michaelis-Menten equation. The compound inhibitor assays were performed at substrate Km concentration. IC50 values were calculated as the concentration of inhibitor giving 50% inhibition (IC50) of the uninhibited enzyme activity (100%).
row,pIC50,SMILES
1,8.00 to 9.00,"Cc1cc(OCC23CN(C(=O)Nc4ccc5c(c4)CCC5)C(CNc4cccc5c(N)nccc45)(C2)C3)cc(=O)n1C [Example 65, 1-(((1-Aminoisoquinolin-5-yl)amino)methyl)-N-(2,3-dihydro-1H-inden-5-yl)-4-(((1,6-dimethyl-2-oxo-1,2-dihydropyridin-4-yl)oxy)methyl)-2-azabicyclo[2.1.1]hexane-2-carboxamide]"
2,6.00 to 6.52,"Cn1ccc(OCC23CC(CNc4cccc5c(N)nccc45)(CN2C(=O)CC2CCCCC2)C3)cc1=O [Example 103, 4-((4-(((1-aminoisoquinolin-5-yl)amino)methyl)-2-(2-cyclohexylacetyl)-2-azabicyclo[2.1.1]hexan-1-yl)methoxy)-1-methylpyridin-2(1H)-one]"
3,8.00 to 9.00,"Nc1nccc2c(NCC34CC(COc5cc6n(c(=O)c5)CCC6)(CN3C(=O)NC3(c5ccccc5)CC3)C4)cccc12 [Example 59, 1-(((1-Aminoisoquinolin-5-yl)amino)methyl)-4-(((5-oxo-1,2,3,5-tetrahydroindolizin-7-yl)oxy)methyl)-N-(1-phenylcyclopropyl)-2-azabicyclo[2.1.1]hexane-2-carboxamide]"
4,7.00 to 8.00,"Cn1ccc(OCC23CN(C(=O)N[C@@H](c4ccccc4)C(F)(F)F)C(CNc4cccc5c(N)nccc45)(C2)C3)cc1=O [Example 88, (S)-1-(((1-aminoisoquinolin-5-yl)amino)methyl)-4-(((1-methyl-2-oxo-1,2-dihydropyridin-4-yl)oxy)methyl)-N-(2,2,2-trifluoro-1-phenylethyl)-2-azabicyclo [2.1.1]hexane-2-carboxamide]"
5,7.00 to 8.00,"Cn1ccc(OCC23CN(C(=O)NC4(C)CCOCC4)C(CNc4cccc5c(N)nccc45)(C2)C3)cc1=O [Example 78, 1-(((1-aminoisoquinolin-5-yl)amino)methyl)-4-(((1-methyl-2-oxo-1,2-dihydropyridin-4-yl)oxy)methyl)-N-(4-methyltetrahydro-2H-pyran-4-yl)-2-azabicyclo[2.1.1]hexane-2-carboxamide]"
6,7.00 to 8.00,"Cn1ccc(OCC23CN(C(=O)NC4CC5(CCC5)C4)C(CNc4cccc5c(N)nccc45)(C2)C3)cc1=O [Example 75, 1-(((1-aminoisoquinolin-5-yl)amino)methyl)-4-(((1-methyl-2-oxo-1,2-dihydropyridin-4-yl)oxy)methyl)-N-(spiro[3.3]heptan-2-yl)-2-azabicyclo[2.1.1]hexane-2-carboxamide]"
7,9.00 to 10.00,"Cn1ccc(OCC23CN(C(=O)Nc4ccc5c(c4)CCCO5)C(CNc4cccc5c(N)nccc45)(C2)C3)cc1=O [Example 52, 1-(((1-aminoisoquinolin-5-yl)amino)methyl)-N-(chroman-6-yl)-4-(((1-methyl-2-oxo-1,2-dihydropyridin-4-yl)oxy)methyl)-2-azabicyclo[2.1.1]hexane-2-carboxamide]"

# Further lines, the compound ahead of its results:
row,SMILES,pIC50
1,"Cc1cc(OCC23CN(C(=O)C(C)c4ccc5c(c4)CCO5)C(CNc4cccc5c(N)nccc45)(C2)C3)cc(=O)n1C (stereo not shown) [Example 28, 4-((1-(((1-aminoisoquinolin-5-yl)amino)methyl)-2-(2-(2,3-dihydrobenzofuran-5-yl)propanoyl)-2-azabicyclo[2.1.1]hexan-4-yl)methoxy)-1,6-dimethylpyridin-2(1H)-one]",7.00 to 8.00
2,"CO[C@H]1CC[C@H](CC(=O)N2CC3(COc4cc(C)n(C)c(=O)c4)CC2(CNc2cccc4c(N)nccc24)C3)CC1 (single isomer, unassigned) [Example 24, 4-((1-(((1-aminoisoquinolin-5-yl)amino)methyl)-2-(2-((1r,4r)-4-methoxycyclohexyl)acetyl)-2-azabicyclo[2.1.1]hexan-4-yl)methoxy)-1,6-dimethylpyridin-2(1H)-one]",7.00 to 8.00
3,"Nc1nccc2c(NCC34CC(CN5C(=O)CC[C@H]5c5ccccc5)(CO3)C4)cccc12 [Example 2, (S)-1-((1-(((1-aminoisoquinolin-5-yl)amino)methyl)-2-oxabicyclo[2.1.1]hexan-4-yl)methyl)-5-phenylpyrrolidin-2-one]",5.00 to 5.52
4,"Cc1cc(OCC23CN(C(=O)CC45CC(C4)C5)C(CNc4cccc5c(N)nccc45)(C2)C3)cc(=O)n1C [Example 26, 4-((1-(((1-aminoisoquinolin-5-yl)amino)methyl)-2-(2-(bicyclo[1.1.1]pentan-1-yl)acetyl)-2-azabicyclo[2.1.1]hexan-4-yl)methoxy)-1,6-dimethylpyridin-2(1H)-one]",7.00 to 8.00
5,"Cn1ccc(OCC23CN(C(=O)CC4CCOCC4)C(CNc4cccc5c(N)nccc45)(C2)C3)cc1=O [Example 9, 4-((1-(((1-aminoisoquinolin-5-yl)amino)methyl)-2-(2-(tetrahydro-2H-pyran-4-yl)acetyl)-2-azabicyclo[2.1.1]hexan-4-yl)methoxy)-1-methylpyridin-2(1H)-one]",7.00 to 8.00
6,"C[C@H](NC(=O)N1CC2(COc3ccn(C)c(=O)c3)CC1(CNc1cccc3c(N)nccc13)C2)c1ccccc1 [Example 32, (S)-1-(((1-aminoisoquinolin-5-yl)amino)methyl)-4-(((1-methyl-2-oxo-1,2-dihydropyridin-4-yl)oxy)methyl)-N-(1-phenylethyl)-2-azabicyclo[2.1.1]hexane-2-carboxamide]",7.00 to 8.00
7,"Cn1ccc(OCC23CN(C(=O)N4CC5(CCC5)C4)C(CNc4cccc5c(N)nccc45)(C2)C3)cc1=O [Example 51, 4-((1-(((1-aminoisoquinolin-5-yl)amino)methyl)-2-(2-azaspiro[3.3]heptane-2-carbonyl)-2-azabicyclo[2.1.1]hexan-4-yl)methoxy)-1-methylpyridin-2(1H)-one]",7.00 to 8.00
8,"Cc1cc(OCC23CN(C(=O)CC45CCC(CC4)C5)C(CNc4cccc5c(N)nccc45)(C2)C3)cc(=O)n1C [Example 22, 4-((1-(((1-aminoisoquinolin-5-yl)amino)methyl)-2-(2-(bicyclo[2.2.1]heptan-1-yl)acetyl)-2-azabicyclo[2.1.1]hexan-4-yl)methoxy)-1,6-dimethylpyridin-2(1H)-one]",7.00 to 8.00
9,"C[C@@H](c1ccccc1)N(C)C(=O)N1CC2(COc3ccn(C)c(=O)c3)CC1(CNc1cccc3c(N)nccc13)C2 [Example 42, (S)-1-(((1-aminoisoquinolin-5-yl)amino)methyl)-N-methyl-4-(((1-methyl-2-oxo-1,2-dihydropyridin-4-yl)oxy)methyl)-N-(1-phenylethyl)-2-azabicyclo[2.1.1]hexane-2-carboxamide]",7.00 to 8.00
10,"Cn1ccc(OCC23CN(C(=O)N4Cc5ccccc5C4)C(CNc4cccc5c(N)nccc45)(C2)C3)cc1=O [Example 50, 4-((1-(((1-aminoisoquinolin-5-yl)amino)methyl)-2-(isoindoline-2-carbonyl)-2-azabicyclo[2.1.1]hexan-4-yl)methoxy)-1-methylpyridin-2(1H)-one]",7.00 to 8.00
11,"Cn1ccc(OCC23CN(C(=O)C4(Oc5ccccc5)CC4)C(CNc4cccc5c(N)nccc45)(C2)C3)cc1=O [Example 6, 4-((1-(((1-aminoisoquinolin-5-yl)amino)methyl)-2-(1-phenoxycyclopropane-1-carbonyl)-2-azabicyclo[2.1.1]hexan-4-yl)methoxy)-1-methylpyridin-2(1H)-one]",6.52 to 7.00
12,"CC(C(=O)N1CC2(COc3ccn(C)c(=O)c3)CC1(CNc1cccc3c(N)nccc13)C2)c1ccc2c(c1)CCO2 (stereo not shown) [Example 27, 4-((1-(((1-aminoisoquinolin-5-yl)amino)methyl)-2-(2-(2,3-dihydrobenzofuran-5-yl)propanoyl)-2-azabicyclo[2.1.1]hexan-4-yl)methoxy)-1-methylpyridin-2(1H)-one]",7.00 to 8.00
